In brackets after ≈: the same amount, converted by molar mass.
What was measured:
[1] = system: ^2651 IgG (coating antibody); test: Direct assay (competition with 2651-HRP for immobilized ^2651 IgG coating antibody); assay type: binding, rabbit; conditions: for IC50: 2651-HRP label, absorbance at 450 nm; for Cross reactivity, RH2651: relative to RH2651; for Cross reactivity, RH5992: relative to RH5992
Description: (§1) As used herein the term "IC50 " is defined as the concentration of the inhibitor required to reduce the absorbance to one-half the absorbance measured when no inhibitor was present. This determination is accomplished by plotting the percent (%) activity remaining versus the concentration of the inhibitor where the percent (%) activity remaining is given by:
(§2) % activity=(Ao -Ai /Ao)×100
(§3) where Ao is the measured absorbance when no inhibitor is present and Ai is the measured absorbance at the i^th concentration of inhibitor. The percent inhibition is then given by the relationship 100-(% activity).
(§4) Sensitivity in ng is calculated from the concentration of the inhibitor determined from regression analysis of the standard deviations of the replicate analyses of the standard concentrations as described in the equation: […]
(§5) where S is the sensitivity in ng, Yint is the Y-intercept of the regression line from the standard deviations of the replicate analyses in absorbance units, m is the slope of the regression line in absorbance units per ng/ml and V is the volume of sample applied to the microtiter plate in ml.
A microplate was coated with ^2651 IgG. Starting with column 1, 100 μl of 10 μg/ml ^2651 IgG were added to each well and 1:2 serial dilutions made across the plate. The plate was sealed and stored at 4° C. until ready to use. After emptying, the plate was washed with 0.01% Tween 20 in PBS and blocked with 1% BSA in PBS for about 1 hour at room temperature. After blocking, the plate was emptied and 150 μl PBS added to each well. Then 50 μl of 2651-HRP dilutions were added down the plate starting with 10 μg/ml and continuing with 1:2 dilutions down the plate. After a 1 hour room temperature incubation, the plate was washed as before and 150 μl 1-Step® Slow-TMB (peroxidase substrate from Pierce Chemical Co.) was added to each well. After one hour development, 150 μl of 1N H2 SO4 was added to stop the reaction and the absorbance of each well measured at 450 nm with the Dynatech MR5000 Microplate Reader. Controls included wells with no coating antibody and wells in which no 2651-HRP were added. A ^2651 IgG coating antibody concentration of 0.625 μg/ml and a 2561-HRP concentration of 1.25 μg/ml were determined to be the optimum concentration for use with 1-Step® Slow-TMB substrate.
The wells of a microplate were coated with 100 μl each of 0.625 μg/ml ^2651 IgG. One row was left uncoated as a control. The plate was kept at 4° C. overnight. The following day the plate was washed with 0.01% Tween 20 polysorbate in PBS and blocked with 1% BSA in PBS for at least 30 minutes. Standard solutions of RH5992, RH2651, RH2703, and RH2485 were made from 1 mg/ml stock solutions. Standard solutions of RH0345 were prepared from a 0.1 ng/ml, 0.5 ng/ml, 1 ng/ml, 5 ng/ml, 10 ng/ml, 50 ng/ml, and 100 ng/ml. After the blocking lo solution was emptied, 150 μl of the standards were added to the appropriate wells. For the zero control 150 μl of PBS was added. After a 45 minute incubation at room temperature, 50 μl of 1.25 μg/ml 2651-HRP were added to each well and the plate agitated to mix the contents. […] After incubation for 45 minutes at room temperature, the plate was washed as before and 150 μl 2651-HRP was added to each well and the plate agitated to mix the contents. […] After incubation for 45 minutes at room temperature, the plate was washed as before and 150 μl Step 1® Slow TMB added to each well. After 2 hours at room temperature, 150 μl 1N H2 SO4 was added to each well and the absorbance read at 450 nm with the Dynatech MR5000 Microplate Reader.
FIG. 16a illustrates a typical curve generated from the assay. The linear portion of the curve is visualized between 0.01 ng/ml and 10 ng/ml. A typical standard curve in the linear range of the assay is illustrated by FIG. 16b using inverse absorbances to generate a positive slope. The limit of detection was calculated as 0.096 ng/ml and the sensitivity calculated as 0.005 ng for RH5992.

[2] = target: Protein A purified IgG (rabbit antibodies to diacyl hydrazines); test: Indirect immunoassay (inhibition of purified IgG binding to RH2703-BSA coating antigen); conditions: indirect assay; for IC50: RH2703-BSA coating antigen, absorbance at 410 nm; for Cross reactivity: IC50 of RH5992 / IC50 of analog x 100
Description: as §1, §2, §3
The percent cross reactivity was derived by the equation: […]
where IC50,5992 is the IC50 concentration for RH5992 as determined above and IC50,analog is the IC50 concentration of the analog, i.e., RH2703, RH2651, and RH0345.
as §4, §5
RH2703-BSA was used as the coating antigen. The concentration required to give a readable response (0.3-0.5 absorbance units @ 410 nm) in the presence of the minimum quantity of antigen (RH2703) was optimized in the presence of a constant amount of protein A purified IgG (10 μl of a 20 μg/ml solution, 100 ng/well) by a checkerboard type assay (see Voller et al, Bull of World Health Organization, 53, 35 (1976)). The concentration of the Protein A purified IgG had been previously optimized in the presence of a constant amount of coating antigen (RH2703-BSA, 100 μl of a 10 μg/ml solution) to give a readable response to the minimum amount of RH5992.
Antibody concentration was optimized to be approximately 20 μg/ml (100 ng per micro well) and the coating antigen was optimized to be 25 ng/ml or 2.5 ng per micro well. When converted to a molar basis and assuming a hapten/protein binding ratio of 55, the hapten is in a three-fold molar excess of the IgG added.
The percent inhibition for RH2703, RH2651, RH5992, RH0345 and RH2485 were determined to the protein IgG in the presence of the optimized concentration of RH2703-BSA coating antigen. Each test substance was assayed at seven concentrations ranging from no test substance 0 ng/ml to 1000 ng/ml. The assay at each concentration was replicated seven times. Antigen negative and antibody negative wells provided negative controls while KLH/anti-KLH wells were used as positive controls.
Serial dilutions of the test substance stock solutions were made with coating buffer containing 0.1% TWEEN 20 polysorbate to give 1000 ng/ml, 100 ng/ml, 10 ng/ml, 1 ng/ml, 0.1 ng/ml, and 0.01 ng/ml assay concentrations. Coating buffer w/0.1% TWEEN 20 polysorbate was used as the 0 ng/ml assay concentration. The test substance assay concentrations (190 μl each) were incubated with 10 μl of the protein A IgG ([…]) for one hour at room temperature. After the incubation period, 100 μl of the test substance-IgG mixture was transferred to the appropriate microtiter well. The microtiter wells had been previously coated with the optimized concentration of RH2703-BSA and the excess protein binding sites were blocked with 0.3 ml of a 1% BSA solution in coating buffer. The plates were incubated for an additional hour at room temperature.
After the second incubation the plates were washed and goat, anti-rabbit immunoglobulin conjugated to alkaline phosphatase (0.6 mg reconstituted with 1 ml 50% glycerol and subsequently diluted with 1:5000 with blocking solution Pierce Chemical Co) was added. The plates were incubated, washed and PNPP substrate added as described in Example 5. […]

| Compound | IC50 [1] [ng/mL] | Cross reactivity, RH2651 [1] [%] | Cross reactivity, RH5992 [1] [%] | IC50 [2] [ng/mL] | Cross reactivity [2] [%] |
| --- | --- | --- | --- | --- | --- |
| Cc1cc(C)cc(C(=O)N(NC(=O)c2ccc(CC(=O)O)cc2)C(C)(C)C)c1 [RH2703] | 2.10 (≈ 0.00549 µM) | 56 | 173 | 1.13 | 54 |
| Cc1cc(C)cc(C(=O)N(NC(=O)c2ccc(C(=O)O)cc2)C(C)(C)C)c1 [RH2651] | 1.17 (≈ 0.00318 µM) | 100 | 311 | 1.59 | 38 |
| COc1cccc(C(=O)NN(C(=O)c2cc(C)cc(C)c2)C(C)(C)C)c1C [RH2485] | 4.64 (≈ 0.0126 µM) | 25 | 78.4 | 0.05 | – |
| CC(C)(C)N(NC(=O)c1ccc(Cl)cc1)C(=O)c1ccccc1 [RH0345] | 16.94 (≈ 0.0512 µM) | 6.9 | 21.5 | 6.5 | 9 |
| CCc1ccc(C(=O)NN(C(=O)c2cc(C)cc(C)c2)C(C)(C)C)cc1 [RH5992] | 3.64 (≈ 0.0103 µM) | 32 | 100 | 0.61 | 100 |
